# Read-outs that look alike come from different tables or passages of the source.
# How the values were obtained:
# Assay type in all cases: cell-based
# NCI-H23 = assay: Cell Viability Assay (CellTiter-Glo); settings: 5 days
# Experimental: (§1) Cell lines were cultured in RPMI-1640, 5% fetal bovine serum, and 2 mM glutamine in a humidified incubator maintained at 37° C. with 5% CO2. Cells were assessed with a Vi-CELL Cell Viability Analyzer (Beckman Coulter; Brea, CA); viability of at least 90% was required for screening. A Multidropä Combi Reagent Dispenser (Thermo Scientific; Waltham, MA) was used to plate cells into Falcons^â 384-well, black, clear-bottom plates (Catalog No. 353962; Corning; Tewksbury, MA) using seeding densities previous determined to achieve approximately 80% confluence at the final time point of the assay. The compounds were prepared at 1000× in advance using an Echo 555 liquid handler (Labcyte; Sunnyvale, CA) and stored in −80° C. until the day of compound addition. On the following day, cells were treated with compounds at final assay concentration 1 uM and 10 uM using a Bravo Automated Liquid-Handling Platform (Agilent; Santa Clara, CA). After 5 days, 25 mL CellTiter-Glo^â reagent was added using a MultiFloä Microplate Dispenser (BioTek; Winooski, VT). Cell lysis was induced by mixing for 30 minutes on an orbital shaker; plates were then incubated at room temperature for 10 minutes to stabilize the luminescent signal. Luminescence was read by a 2104 EnVision^â Multilabel Plate Reader (PerkinElmer; Waltham, MA).
# (§2) The data was processed using Genedata Screener^â, Version 15 (Genedata; Basel, Switzerland) to assess compound effects on viability. Compound treated wells were normalized to the median value of 14 DMSO control wells on the same 384 well plate.
# VHL [1] = target: T1, VHL (Homo sapiens, UniProt P40337); assay: VHL HEK-293 BRET Assay (VHL NanoBRET Target Engagement Assay); settings: HEK 293 RT VHL-NanoLuc stable cells; read-out: IC50
# T1 construct: expressed in transfected cells
# Experimental: The VHL NanoBRET™ Target Engagement Assay analyzes the apparent affinity of test compounds for VHL in cells by competitive displacement of a VHL NanoBRET™ tracer reversibly bound to a NanoLuc® VHL fusion protein stably expressed in the cells.
# Test compounds were transferred to the assay plate (384 Well White Non-Binding Corning Assay Plates (Corning-3574)) using an Echo 555 Liquid Handler (Labcyte) in 2.5 nL increments and, as appropriate, intermediate stock concentrations of compounds, in order to prepare a titration series. 50 nL of control compound (10 mM; parental unlabeled VHL antagonist; see structure below) and 50 nL of DMSO (negative control) were dispensed into the appropriate control wells. DMSO was backfilled to a final volume of 50 nL as required. 50 nl per well of 1 mM VHL NanoBRET™ Tracer in DMSO (NanoBRET™ Tracer-PEG2-590 (see structure below)) was transferred into each well using an Echo 555 (ultimately yielding a final concentration of 1 uM). HEK 293 RT VHL-NanoLuc® stable cells were cultured in DMEM High Glucose with Pyruvate, 10% fetal bovine serum, 2 mg/mL of Geneticin Selective Antibiotic (50 mg/mL) and 2 mM HEPES (1 M). Cells were seeded in Opti-MEM (Life Technologies-11058-021), 1.7×10^5 cells/mL, 40 μl per well into the assay plate, centrifuged at 500 rpm for 30 seconds and incubated for 2 hours. Max Signal control wells consisted of DMSO only treated wells. Minimum Signal control wells contained of 10 uM parental unlabeled VHL antagonist (control compound—see structure below). 3× Complete Substrate plus Inhibitor Solution was prepared in Opti-MEM (consists of a 1:166 dilution of NanoBRET™ Nano-Glo® Substrate plus a 1:500 dilution of Extracellular NanoLuc® Inhibitor in Opti-MEM), and 20 ul was dispensed into each well of the 384-well plate and centrifuged at 1000 rpm for 1 minute, then incubated for 2 minutes at room temperature. Background Signal control wells were prepared without tracer for background correction steps.
# Plates were read using a PerkinElmer Envision Reader (model 2104-0020) equipped with Luminescence option (Mirror: BRET2 Enh (PE Barcode 659), Emission Filter: Omega 610LP (Barcode 504), 2nd Emission Filter: Umbelliferone 460 (Barcode 207), Measurement height: 6.5 mm, Measurement time: 1 s). The raw BRET ratio values were calculated by dividing the acceptor emission value (610 nm) by the donor emission value (460 nm) for each sample. To correct for background, the BRET ratio in the absence of tracer (average of no-tracer control samples) was subtracted from the BRET ratio of each sample. Raw BRET units were converted to milliBRET units (mBU) by multiplying each raw BRET value by 1,000. The normalized NanoBRET™ signal was calculated relative to the Max Signal control wells (DMSO treated control wells) and the Minimum Signal control wells. Percentage inhibition was calculated relative to the Minimum Signal control and Maximum Signal control wells. IC50 values were derived by four parameter curve fitting using the Robust method.
# ABC-1 = assay: Cell Viability Assay (CellTiter-Glo); settings: 10 μM, 5 days
# Experimental: as §1, §2
# VHL [2] = target: T1, VHL; assay: VHL HEK-293 BRET Assay (VHL NanoBRET Target Engagement Assay); settings: IC50 values measured in the presence of digitonin; HEK 293 RT VHL-NanoLuc stable cells; read-out: IC50 + Digi (μM)*
# T1 sequence (P40337 whole entry): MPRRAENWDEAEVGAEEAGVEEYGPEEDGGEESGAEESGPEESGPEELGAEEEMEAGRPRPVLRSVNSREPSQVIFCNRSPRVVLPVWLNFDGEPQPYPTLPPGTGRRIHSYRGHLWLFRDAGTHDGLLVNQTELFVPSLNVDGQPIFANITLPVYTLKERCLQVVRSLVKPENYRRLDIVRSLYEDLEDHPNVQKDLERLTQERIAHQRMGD
Compound,Normalized viability % DMSO (NCI-H23; 1 μM) [% DMSO],IC50 (VHL [1]) [nM],Normalized viability % DMSO (ABC-1) [% DMSO],IC50 (VHL [2]) [µM],Normalized viability % DMSO (NCI-H23; 10 μM) [% DMSO]
"CC(C)(C)[C@@H](C(=O)N1C[C@H](O)C[C@H]1C(=O)NCC12CCCC(C1)C(=O)N2)n1cc(C2CC2)nn1 (stereo partly drawn) [Compound 110, (2S,4R)-1-[(2S)-2-(4-cyclopropyltriazol-1-yl)-3,3-dimethyl-butanoyl]-4-hydroxy-N-[(7-oxo-6-azabicyclo[3.2.1]octan-5-yl)methyl]pyrrolidine-2-carboxamide]",18.9,–,–,–,–
"CC(C)(C)[C@@H](C(=O)N1C[C@H](O)C[C@H]1C(=O)NC(CO)c1ccc(Br)c(F)c1)n1cc(C2CC2)nn1 (stereo partly drawn) [Compound 174, (2S,4R)-N-[1-(4-bromo-3-fluoro-phenyl)-2-hydroxy-ethyl]-1-[(2S)-2-(4-cyclopropyltriazol-1-yl)-3,3-dimethyl-butanoyl]-4-hydroxy-pyrrolidine-2-carboxamide]",–,11.4,50.7,0.0152,–
"CNC(=O)[C@@H]1C[C@@H](O)CN1C(=O)[C@@H](n1cc(Cn2cnc3cc(C)c(C)cc32)nn1)C(C)(C)C [Compound 914, (2S,4R)-1-[(2S)-2-[4-[(5,6-dimethylbenzimidazol-1-yl)methyl]triazol-1-yl]-3,3-dimethyl-butanoyl]-4-hydroxy-N-methyl-pyrrolidine-2-carboxamide]",–,5460,–,3,44.5
"CC(C)(C)[C@@H](C(=O)N1C[C@H](O)C[C@H]1C(=O)NCCCn1cnc2c(N)ncnc21)n1cc(C2CC2)nn1 [Compound 1129, (2S,4R)-N-[3-(6-aminopurin-9-yl)propyl]-1-[(2S)-2-(4-cyclopropyltriazol-1-yl)-3,3-dimethyl-butanoyl]-4-hydroxy-pyrrolidine-2-carboxamide]",–,17300,4.2,2.33,–
"CC(C)(C)[C@@H](C(=O)N1C[C@H](O)C[C@H]1C(=O)NCC1CCS(=O)(=O)c2ccccc21)n1cc(C2CC2)nn1 (stereo partly drawn) [Compound 420, (2S,4R)-1-[(2S)-2-(4-cyclopropyltriazol-1-yl)-3,3-dimethyl-butanoyl]-N-[(1,1-dioxo-3,4-dihydro-2H-thiochromen-4-yl)methyl]-4-hydroxy-pyrrolidine-2-carboxamide]",10.8,3890,–,4.3,–
"CC(C)(C)[C@@H](C(=O)N1C[C@H](O)C[C@H]1C(=O)NC1CCc2c(Cl)cc(Cl)cc21)n1cc(C2CC2)nn1 (stereo partly drawn) [Compound 169, (2S,4R)-1-[(2S)-2-(4-cyclopropyltriazol-1-yl)-3,3-dimethyl-butanoyl]-N-(4,6-dichloroindan-1-yl)-4-hydroxy-pyrrolidine-2-carboxamide]",–,1810,–,2.93,39.3
"Cn1c(CCNC(=O)[C@@H]2C[C@@H](O)CN2C(=O)[C@@H](n2cc(C3CC3)nn2)C(C)(C)C)nc2c(F)cccc21 [Compound 1131, (2S,4R)-1-[(2S)-2-(4-cyclopropyltriazol-1-yl)-3,3-dimethyl-butanoyl]-N-[2-(4-fluoro-1-methyl-benzimidazol-2-yl)ethyl]-4-hydroxy-pyrrolidine-2-carboxamide]",21.7,–,–,–,–
"CC(C)(C)[C@@H](C(=O)N1C[C@H](O)C[C@H]1C(=O)NCCC1(O)CN(C(c2ccccc2)c2ccccc2)C1)n1cc(C2CC2)nn1 [Compound 449, (2S,4R)-N-[2-(1-benzhydryl-3-hydroxy-azetidin-3-yl)ethyl]-1-[(2S)-2-(4-cyclopropyltriazol-1-yl)-3,3-dimethyl-butanoyl]-4-hydroxy-pyrrolidine-2-carboxamide]",–,802,–,2.17,43.4
"CN1CC(CCNC(=O)[C@@H]2C[C@@H](O)CN2C(=O)[C@@H](n2cc(C3CC3)nn2)C(C)(C)C)CC1=O (stereo partly drawn) [Compound 236, (2S,4R)-1-[(2S)-2-(4-cyclopropyltriazol-1-yl)-3,3-dimethyl-butanoyl]-4-hydroxy-N-[2-(1-methyl-5-oxo-pyrrolidin-3-yl)ethyl]pyrrolidine-2-carboxamide]",18.7,–,–,–,–
